Laboratory results published in patent publication US20100297692A1, “REACTION MEDIUM FOR DETECTING AND/OR IDENTTIFYING STAPHYLOCCOUS AUREUS” (BIOMERIEUX, priority 2007, published 2010).

Legend:
S. aureus (MRSA) = test: β-D-ribosidase substrates in Columbia agar, colored or fluorescent colonies; format: cell-based, Staphylococcus aureus; settings: 400 mg/L + ammoniacal iron citrate 100 mg/l
Method: (§1) The media hereinafter were prepared in 200 ml of a Columbia agar base (Oxoid), in combination with the chromogenic β-D-ribosidase substrates. The various substrates and also the concentrations and the additives used in the media are described in Table 1 below:
(§2) The β-D-ribosidase substrates are solubilized in DMSO and added to the media so as to obtain the concentrations indicated in Table 1.
(§3) 191 bacterial strains were inoculated onto each of the media using a suspension at 0.5 MacFarland diluted to 1/1000. The dishes were incubated at 37° C. and then read.
(§4) The media were distributed into Petri dishes, then inoculated with approximately 100 000 CFU, then incubated at 37° C. for 48 h. The colonies formed were examined visually after incubation times of 18, 24 and 48 hours.
(§5) The stock collection of 191 strains comprised: […], 48 Staphylococcus spp, 61 Enterococcus spp and 3 alpha-hemolytic Streptococcus.

S. aureus (MSSA) = test: as above; format: cell-based, Staphylococcus aureus; settings: 400 mg/L + ammoniacal iron citrate 100 mg/l
Method: as §1, §2, §3, §4, §5

[1] = test system: Coagulase-negative Staphylococci; test: as above; format: cell-based, Staphylococcus spp; settings: Coagulase-negative Staphylococci, 400 mg/L + ammoniacal iron citrate 100 mg/l
Method: as §1, §2, §3, §4, §5

Micrococcus luteus = test: as above; format: cell-based; settings: 400 mg/L + ammoniacal iron citrate 100 mg/l
Method: [The procedure below names another organism; the source lists this organism under the same test.] as §1, §2, §3, §4, §5

Enterococci = test: as above; format: cell-based, Enterococcus spp; settings: 400 mg/L + ammoniacal iron citrate 100 mg/l
Method: as §1, §2, §3, §4, §5

[2] = test system: Alpha-hemolytic streptococci; test: as above; format: cell-based, alpha-hemolytic Streptococcus; settings: 400 mg/L + ammoniacal iron citrate 100 mg/l
Method: as §1, §2, §3, §4, §5

[3] = test system: S. aureus (MRSA and MSSA); test: Catechol-β-D-riboside in a liquid medium, coloration; format: cell-based, Staphylococcus aureus
Method: (§6) The medium hereinafter had the same composition as a chromID S. aureus base (bioMérieux), with no selective agents nor agar, so as to obtain a liquid medium. The substrates and inducers were replaced, before autoclaving, with […] of catechol-β-D-riboside, solubilized in DMSO, and with ammoniacal iron citrate at 500 mg/l. The medium was then distributed into tubes in a proportion of 1.5 ml/tube.
For this medium, the inoculation was carried out using precultures prepared for 24 h at 37° C. A suspension of physiological saline at 0.5 McF was prepared and then each tube was inoculated with 10 μl of bacterial suspension. […]
(§7) In total, 11 staphylococcus strains were tested; 5 S. aureus and 6 of other species of the Staphylococcus genus (coagulase-negative).

Coagulase-negative = test: as above; format: cell-based
Method: as §6
For this medium, the inoculation was carried out using precultures prepared for 24 h at 37° C. A suspension of physiological saline at 0.5 McF was prepared and then each tube was inoculated with 10 μl of bacterial suspension.
(§8) The readings were carried out after 24 and 48 hours of incubation at 37° C.
as §7

S aureus (MRSA and MSSA) = test: Catechol-β-D-riboside and X-β-D-riboside on a broad panel of Staphylococcus spp; format: cell-based; settings: GTS medium, 300 mg/l substrate, 500 mg/l ammoniacal iron citrate
Method: (§9) Catechol-β-D-riboside: A GTS medium (bioMérieux) supplemented with 300 mg/l of catechol-β-D-riboside, then autoclaved, and with 500 mg/l of ammoniacal iron citrate was used and distributed into Petri dishes 55 mm in diameter.
(§10) X-β-D-riboside: A modified Chapman medium, without NaCl, autoclaved and supplemented with 60 mg/l of X-β-D-riboside, was used and distributed into Petri dishes 55 mm in diameter.
For the two media, the inoculation was carried out using precultures prepared for 24 h at 37° C. A suspension in physiological saline at 0.5 McF was prepared and then each strain was inoculated onto a dish using a 10 μl calibrated loop. […]
(§11) In total, […] were tested: 34 S. aureus, including 25 MRSAs, and 46 other species of Staphylococcus (including S. schleiferi; S. capitis; S. hyicus; S. intermedius; S. haemolyticus; S. auricularis; S. hominis; S. warneri; S. chromogenes; S. cohnii; S. epidermidis; S. sciuri; S. xylosus; S. saprophyticus).

Coag neg = test: as above; format: cell-based; settings: GTS medium, 300 mg/l substrate, 500 mg/l ammoniacal iron citrate
Method: as §9, §10
For the two media, the inoculation was carried out using precultures prepared for 24 h at 37° C. A suspension in physiological saline at 0.5 McF was prepared and then each strain was inoculated onto a dish using a 10 μl calibrated loop.
as §8, §11

Q: How did the “% of strains producing colored or fluorescent colonies” value (S. aureus (MRSA); 18 h) turn out when OC[C@H]1O[C@@H](Oc2ccccc2O)[C@H](O)[C@@H]1O [Catechol-β-riboside, 2-Hydroxyphenyl-beta-D-riboside] was run?
A: 100%

Q: And the “% of strains producing colored or fluorescent colonies” value (S. aureus (MRSA); 24 h)?
A: 100%

Q: And the “% of strains producing colored or fluorescent colonies” value (S. aureus (MRSA); 48 h)?
A: 100%

Q: What about the “% of strains producing colored or fluorescent colonies” value (S. aureus (MSSA); 18 h) of the same compound?
A: 100%

Q: And the “% of strains producing colored or fluorescent colonies” value (S. aureus (MSSA); 24 h)?
A: 100%

Q: What about the “% of strains producing colored or fluorescent colonies” value (S. aureus (MSSA); 48 h) of the same compound?
A: 100%

Q: And the “% of strains producing colored or fluorescent colonies” value ([1]; 18 h)?
A: 3%

Q: What about the “% of strains producing colored or fluorescent colonies” value ([1]; 24 h) of the same compound?
A: 3%

Q: And the “% of strains producing colored or fluorescent colonies” value ([1]; 48 h)?
A: 3%

Q: What about the “% of strains producing colored or fluorescent colonies” value (Micrococcus luteus; 18 h) of the same compound?
A: 0%

Q: What about the “% of strains producing colored or fluorescent colonies” value (Micrococcus luteus; 24 h) of the same compound?
A: 0%

Q: And the “% of strains producing colored or fluorescent colonies” value (Micrococcus luteus; 48 h)?
A: 0%

Q: And the “% of strains producing colored or fluorescent colonies” value (Enterococci; 18 h)?
A: 2%

Q: And the “% of strains producing colored or fluorescent colonies” value (Enterococci; 24 h)?
A: 2%

Q: And the “% of strains producing colored or fluorescent colonies” value (Enterococci; 48 h)?
A: 2%

Q: What about the “% of strains producing colored or fluorescent colonies” value ([2]; 18 h) of the same compound?
A: 0%

Q: What about the “% of strains producing colored or fluorescent colonies” value ([2]; 24 h) of the same compound?
A: 0%

Q: What about the “% of strains producing colored or fluorescent colonies” value ([2]; 48 h) of the same compound?
A: 0%

Q: And the “Number of strains producing a coloration, Positive at 18 h” value ([3]; 300 ml/g catechol-β-D-riboside, ammoniacal iron citrate 500 mg/l, S. aureus, 18 h)?
A: 5/5

Q: What about the “Number of strains producing a coloration, Positive at 24 h” value ([3]; 300 ml/g catechol-β-D-riboside, ammoniacal iron citrate 500 mg/l, S. aureus, 24 h) of the same compound?
A: 5/5

Q: What about the “Number of strains producing a coloration, Positive at 48 h” value ([3]; 300 ml/g catechol-β-D-riboside, ammoniacal iron citrate 500 mg/l, S. aureus, 48 h) of the same compound?
A: 5/5

Q: What about the “coloration for S. aureus” value ([3]; from 18 hours onward) of the same compound?
A: 100%

Q: What about the “Number of strains producing a coloration, Positive at 18 h” value (Coagulase-negative; 300 ml/g catechol-β-D-riboside, ammoniacal iron citrate 500 mg/l, coagulase-negative, 18 h) of the same compound?
A: 0/6

Q: And the “Number of strains producing a coloration, Positive at 24 h” value (Coagulase-negative; 300 ml/g catechol-β-D-riboside, ammoniacal iron citrate 500 mg/l, coagulase-negative, 24 h)?
A: 0/6

Q: What about the “Number of strains producing a coloration, Positive at 48 h” value (Coagulase-negative; 300 ml/g catechol-β-D-riboside, ammoniacal iron citrate 500 mg/l, coagulase-negative, 48 h) of the same compound?
A: 1/6

Q: And the “detection of the other species of the Staphylococcus genus” value (Coagulase-negative; from 18 hours onward)?
A: none of the other species of the Staphylococcus genus were detected

Q: And the “Number of strains producing a coloration/total number of strains, positive at 18 h” value (S aureus (MRSA and MSSA); 18 h)?
A: 19/34

Q: And the “Number of strains producing a coloration/total number of strains, positive at 24 h” value (S aureus (MRSA and MSSA); 24 h)?
A: 31/34

Q: And the “Number of strains producing a coloration/total number of strains, positive at 48 h” value (S aureus (MRSA and MSSA); 48 h)?
A: 34/34

Q: What about the “Number of strains producing a coloration/total number of strains, positive at 18 h” value (Coag neg; 18 h) of the same compound?
A: 10/46

Q: And the “Number of strains producing a coloration/total number of strains, positive at 24 h” value (Coag neg; 24 h)?
A: 14/46

Q: And the “Number of strains producing a coloration/total number of strains, positive at 48 h” value (Coag neg; 48 h)?
A: 14/46
